# Assay results: article PMC9653173, “Trotabresib (CC-90010) in combination with adjuvant temozolomide or concomitant temozolomide plus radiotherapy in patients with newly diagnosed glioblastoma” (Neuro-Oncology Advances, 2022)
# Like-named read-outs stand apart in the source and are kept apart here.
# Tests used:
# MYC = details: in vitro; cited from earlier work
# [1] = tested on: patients with newly diagnosed glioblastoma
# Source text: The phase Ib, dose-escalation part of this study explored escalating oral doses of trotabresib in combination with TMZ in the adjuvant setting and with TMZ plus RT in the concomitant setting. […] Dose-escalation decisions were made by the safety review committee, based on all available safety, pharmacokinetics, pharmacodynamics, and preliminary efficacy information, and a calculation of risk assessment using a Bayesian logistic regression model.
# The primary endpoints of the study were to determine the safety and tolerability, maximum tolerated dose, and/or recommended phase II dose (RP2D) of trotabresib in combination with TMZ as adjuvant therapy, and with TMZ and RT as concomitant therapy. […] Trotabresib pharmacodynamics was an exploratory endpoint.
# Adverse events (AEs) were classified using the Medical Dictionary for Regulatory Activities v18.1 or higher system organ class and preferred term. Severity of AEs was graded based on the patient’s symptoms according to the National Cancer Institute Common Terminology Criteria for Adverse Events v5.0.[35] Dose-limiting toxicities (DLTs) were defined as any of the toxicities described in Supplementary Table S2 occurring within the DLT assessment period (cycle 1 [28 days]), unless the event could clearly be determined to be unrelated to trotabresib. Screening MRI scans were performed after surgical resection and within 28 days (+3 days) prior to initiation of study treatment. Subsequent tumor assessments by MRI or CT were performed at week 10 during the concomitant treatment period and at the end of every other treatment cycle from cycle 2 onwards during the adjuvant and trotabresib monotherapy treatment periods. Best overall response (BOR) was evaluated as complete response (CR), partial response (PR), SD, progressive disease (PD), or not evaluable, according to Response Assessment in Neuro-Oncology criteria for high-grade glioma.[36] Plasma samples were collected during the first treatment cycle for investigation of trotabresib pharmacokinetics and pharmacodynamics. Plasma pharmacokinetic parameters assessed included peak plasma concentration (Cmax), time to peak plasma concentration (tmax), area under the plasma concentration–time curve (AUC), and terminal half-life (t½). Pharmacodynamic markers assessed included blood levels of CCR1 and HEXIM1 mRNA, which are established markers of BET inhibitor target engagement.[17],[22],[37],[38]
# glioblastoma = tested on: glioblastoma; set-up: method as in earlier work; details: study discontinued; cited from earlier work
# rhabdomyosarcoma cells = tested on: rhabdomyosarcoma cells; set-up: method as in PMID 32200036; details: cited from earlier work
# breast cancer cells = tested on: breast cancer cells; set-up: method as in PMID 32848091; details: cited from earlier work
# [2] = adjuvant overall (N = 18), related to labelled drug(s)
# [3] = concomitant overall (N = 14), related to labelled drug(s)
structure (smiles),measurement,setting,value
"Cc1sc2c(c1C)C(c1ccc(Cl)cc1)=N[C@@H](CC(=O)OC(C)(C)C)c1nnc(C)n1-2 [JQ1, reference compound]",MYC expression,MYC,downregulated in vitro
"Cn1nnc2c(C(N)=O)ncn2c1=O [TMZ, temozolomide]","ALT increased TRAE, grade 3/4",[1]; [2],1 (6) n (%)
same,"AST increased TRAE, any grade",[1]; [2],2 (11) n (%)
same,"AST increased TRAE, grade 3/4",[1]; [2],0 n (%)
same,"Acneiform dermatitis TRAE, any grade",[1]; [2],1 (6) n (%)
same,"Acneiform dermatitis TRAE, grade 3/4",[1]; [2],0 n (%)
same,"Anemia TRAE, any grade",[1]; [2],3 (17) n (%)
same,"Anemia TRAE, grade 3/4",[1]; [2],0 n (%)
same,"Any TRAE, any grade",[1]; [2],17 (94) n (%)
same,"Any TRAE, grade 3/4",[1]; [2],10 (56) n (%)
same,"Asthenia TRAE, any grade",[1]; [2],6 (33) n (%)
same,"Asthenia TRAE, grade 3/4",[1]; [2],1 (6) n (%)
same,"Blood bilirubin increased TRAE, any grade",[1]; [2],0 n (%)
same,"Blood bilirubin increased TRAE, grade 3/4",[1]; [2],0 n (%)
same,"Decreased appetite TRAE, any grade",[1]; [2],6 (33) n (%)
same,"Decreased appetite TRAE, grade 3/4",[1]; [2],0 n (%)
same,"Diarrhea TRAE, any grade",[1]; [2],5 (28) n (%)
same,"Diarrhea TRAE, grade 3/4",[1]; [2],0 n (%)
same,"Dysgeusia TRAE, any grade",[1]; [2],4 (22) n (%)
same,"Dysgeusia TRAE, grade 3/4",[1]; [2],0 n (%)
same,"Dyspepsia TRAE, any grade",[1]; [2],2 (11) n (%)
same,"Dyspepsia TRAE, grade 3/4",[1]; [2],0 n (%)
same,"Fatigue TRAE, any grade",[1]; [2],2 (11) n (%)
same,"Fatigue TRAE, grade 3/4",[1]; [2],0 n (%)
same,"Hyperbilirubinemia TRAE, any grade",[1]; [2],3 (17) n (%)
same,"Hyperbilirubinemia TRAE, grade 3/4",[1]; [2],0 n (%)
same,"Hyperglycemia TRAE, any grade",[1]; [2],1 (6) n (%)
same,"Hyperglycemia TRAE, grade 3/4",[1]; [2],0 n (%)
same,"Hypophosphatemia TRAE, any grade",[1]; [2],1 (6) n (%)
same,"Hypophosphatemia TRAE, grade 3/4",[1]; [2],0 n (%)
same,"Hypotension TRAE, any grade",[1]; [2],0 n (%)
same,"Hypotension TRAE, grade 3/4",[1]; [2],0 n (%)
same,"Insomnia TRAE, any grade",[1]; [2],1 (6) n (%)
same,"Insomnia TRAE, grade 3/4",[1]; [2],0 n (%)
same,"Intracranial hemorrhage TRAE, any grade",[1]; [2],0 n (%)
same,"Intracranial hemorrhage TRAE, grade 3/4",[1]; [2],0 n (%)
same,"Leukopenia TRAE, any grade",[1]; [2],2 (11) n (%)
same,"Leukopenia TRAE, grade 3/4",[1]; [2],0 n (%)
same,"Lymphopenia TRAE, any grade",[1]; [2],2 (11) n (%)
same,"Lymphopenia TRAE, grade 3/4",[1]; [2],1 (6) n (%)
same,"Nausea TRAE, any grade",[1]; [2],12 (67) n (%)
same,"Nausea TRAE, grade 3/4",[1]; [2],0 n (%)
same,"Neutropenia TRAE, any grade",[1]; [2],7 (39) n (%)
same,"Neutropenia TRAE, grade 3/4",[1]; [2],4 (22) n (%)
same,"Pruritus TRAE, any grade",[1]; [2],0 n (%)
same,"Pruritus TRAE, grade 3/4",[1]; [2],0 n (%)
same,"Rash TRAE, any grade",[1]; [2],1 (6) n (%)
same,"Rash TRAE, grade 3/4",[1]; [2],0 n (%)
same,"Seizure TRAE, any grade",[1]; [2],0 n (%)
same,"Seizure TRAE, grade 3/4",[1]; [2],0 n (%)
same,"Thrombocytopenia TRAE, any grade",[1]; [2],13 (72) n (%)
same,"Thrombocytopenia TRAE, grade 3/4",[1]; [2],9 (50) n (%)
same,"Vomiting TRAE, any grade",[1]; [2],7 (39) n (%)
same,"Vomiting TRAE, grade 3/4",[1]; [2],0 n (%)
same,"ALT increased TRAE, any grade",[1]; [3],1 (7) n (%)
same,"ALT increased TRAE, grade 3/4",[1]; [3],1 (7) n (%)
same,"AST increased TRAE, any grade",[1]; [3],1 (7) n (%)
same,"AST increased TRAE, grade 3/4",[1]; [3],0 n (%)
same,"Acneiform dermatitis TRAE, any grade",[1]; [3],2 (14) n (%)
same,"Acneiform dermatitis TRAE, grade 3/4",[1]; [3],0 n (%)
same,"Anemia TRAE, any grade",[1]; [3],4 (29) n (%)
same,"Anemia TRAE, grade 3/4",[1]; [3],2 (14) n (%)
same,"Any TRAE, any grade",[1]; [3],14 (100) n (%)
same,"Any TRAE, grade 3/4",[1]; [3],9 (64) n (%)
same,"Asthenia TRAE, any grade",[1]; [3],4 (29) n (%)
same,"Asthenia TRAE, grade 3/4",[1]; [3],0 n (%)
same,"Blood bilirubin increased TRAE, any grade",[1]; [3],1 (7) n (%)
same,"Blood bilirubin increased TRAE, grade 3/4",[1]; [3],0 n (%)
same,"Decreased appetite TRAE, any grade",[1]; [3],4 (29) n (%)
same,"Decreased appetite TRAE, grade 3/4",[1]; [3],0 n (%)
same,"Diarrhea TRAE, any grade",[1]; [3],3 (21) n (%)
same,"Diarrhea TRAE, grade 3/4",[1]; [3],0 n (%)
same,"Dysgeusia TRAE, any grade",[1]; [3],4 (29) n (%)
same,"Dysgeusia TRAE, grade 3/4",[1]; [3],0 n (%)
same,"Dyspepsia TRAE, any grade",[1]; [3],2 (14) n (%)
same,"Dyspepsia TRAE, grade 3/4",[1]; [3],0 n (%)
same,"Fatigue TRAE, any grade",[1]; [3],5 (36) n (%)
same,"Fatigue TRAE, grade 3/4",[1]; [3],1 (7) n (%)
same,"Hyperbilirubinemia TRAE, any grade",[1]; [3],2 (14) n (%)
same,"Hyperbilirubinemia TRAE, grade 3/4",[1]; [3],0 n (%)
same,"Hyperglycemia TRAE, any grade",[1]; [3],0 n (%)
same,"Hyperglycemia TRAE, grade 3/4",[1]; [3],0 n (%)
same,"Hypophosphatemia TRAE, any grade",[1]; [3],1 (7) n (%)
same,"Hypophosphatemia TRAE, grade 3/4",[1]; [3],0 n (%)
same,"Hypotension TRAE, any grade",[1]; [3],0 n (%)
same,"Hypotension TRAE, grade 3/4",[1]; [3],0 n (%)
same,"Insomnia TRAE, any grade",[1]; [3],0 n (%)
same,"Insomnia TRAE, grade 3/4",[1]; [3],0 n (%)
same,"Intracranial hemorrhage TRAE, any grade",[1]; [3],0 n (%)
same,"Intracranial hemorrhage TRAE, grade 3/4",[1]; [3],0 n (%)
same,"Leukopenia TRAE, any grade",[1]; [3],1 (7) n (%)
same,"Leukopenia TRAE, grade 3/4",[1]; [3],0 n (%)
same,"Lymphopenia TRAE, any grade",[1]; [3],3 (21) n (%)
same,"Lymphopenia TRAE, grade 3/4",[1]; [3],1 (7) n (%)
same,"Nausea TRAE, any grade",[1]; [3],11 (79) n (%)
same,"Nausea TRAE, grade 3/4",[1]; [3],0 n (%)
same,"Neutropenia TRAE, any grade",[1]; [3],6 (43) n (%)
same,"Neutropenia TRAE, grade 3/4",[1]; [3],4 (29) n (%)
same,"Pruritus TRAE, any grade",[1]; [3],0 n (%)
same,"Pruritus TRAE, grade 3/4",[1]; [3],0 n (%)
same,"Rash TRAE, any grade",[1]; [3],0 n (%)
same,"Rash TRAE, grade 3/4",[1]; [3],0 n (%)
same,"Seizure TRAE, any grade",[1]; [3],0 n (%)
same,"Seizure TRAE, grade 3/4",[1]; [3],0 n (%)
same,"Thrombocytopenia TRAE, any grade",[1]; [3],10 (71) n (%)
same,"Thrombocytopenia TRAE, grade 3/4",[1]; [3],7 (50) n (%)
same,"Vomiting TRAE, any grade",[1]; [3],8 (57) n (%)
same,"Vomiting TRAE, grade 3/4",[1]; [3],0 n (%)
same,"ALT increased TRAE, any grade","[1]; human, in vivo",2 (11) n (%)
same,"TEAEs leading to discontinuation of the labelled study drug(s), patients","[1]; human, in vivo",2 (11) 2 (11) 2 (11) n (%)
same,"TRAEs leading to discontinuation of TMZ, related to labelled drug(s)","[1]; human, in vivo",1 (6) 1 (6) 1 (6) n (%)
same,"TRAEs leading to discontinuation of any study drug, related to labelled drug(s)","[1]; human, in vivo",1 (6) 1 (6) 1 (6) n (%)
same,"TRAEs leading to discontinuation of trotabresib, related to labelled drug(s)","[1]; human, in vivo",1 (6) 1 (6) 1 (6) n (%)
Cc1sc2c(c1C)C(c1ccc(Cl)cc1)=N[C@@H](CC(=O)Nc1ccc(O)cc1)c1nnc(C)n1-2 [OTX015],Clinical activity (primary endpoint 6-month PFS),glioblastoma,lack of clinical activity
same,Antitumor activity as a single agent,rhabdomyosarcoma cells,demonstrated antitumor activity as a single agent
same,Effect on ionizing radiation,rhabdomyosarcoma cells,potentiated the effects of ionizing radiation
CCNC(=O)C[C@@H]1N=C(c2ccc(Cl)cc2)c2cc(OC)ccc2-n2c(C)nnc21 [iBET-762],Expression of the HER2-regulated gene TUBB3,breast cancer cells,upregulated expression
same,Sensitivity to vinorelbine,breast cancer cells; in vitro and in PDX models,increased sensitivity to vinorelbine
